How the values were obtained:
C. zeylanoides [1] = test: Diagnosis from isolated colonies on gelose 2/5; assay type: cell-based, Candida zeylanoides; settings: Table VI; also: key: -: none; +: weak; ++: moderate; +++: intense; ++++: very intense
C. albicans [2] = test: Diagnosis from non-isolated colonies on gelose 2/5; assay type: cell-based, Candida albicans
C. krusei [3] = test: Diagnosis from non-isolated colonies on gelose 2/5; assay type: cell-based, Candida krusei
Description: (§1) According to the afore-mentioned best mode of carrying out the invention, a culture medium containing the following ingredients is prepared; it is called gelose 2 below and is buffered to pH 6.0.
(§2) According to the afore-mentioned best mode of carrying out the invention, a culture medium containing the following ingredients is prepared; it is called gelose 5 below and is buffered to pH 6.0.
A mixture of several non-isolated strains of C. albicans, C. tropicalis, C. krusei, C. guillermondii, C. pseudotropicalis, C. parapsilosis, Cryptococcus neoformaas, Torulopsis glabrata and Trichosporon cutaneum was inoculated and incubated on the culture media according to Examples 1 to 5, containing the substrate N-Ac-β-D-galactosaminide-PNP of the prior art or the substrate H-Pro-pNA.AcOH according to the invention. The results, which were obtained particularly with geloses 2 and 5, are collated in Table VIII below, where the TTC column relates to results of tests undertaken separately on a standard gelose medium containing TTC.
(§3) A mixture of several non-isolated strains of C. albicans, C. tropicalis, C. krusei, C. guillermondii, C. pseudotropicalis, C. parapsilosis, C. zeylanoides, C. ciferii, C. cerevisiae, Torulopsis glabrata and Trichosporon cutaneum was inoculated and incubated on the culture media according to Example 5, containing the substrate N-Ac-β-D-galactosaminide-PNP of the prior art or the substrate H-Pro-pNA.AcOH according to the invention.

Cr. neoformans = test: Diagnosis from non-isolated colonies on gelose 2/5; assay type: cell-based, Cryptococcus neoformans; settings: Table VIII; also: key: -: none; +: weak; ++: moderate; +++: intense; ++++: very intense
Tr. cutaneum [4] = test: Diagnosis from non-isolated colonies on gelose 2/5; assay type: cell-based, Trichosporon cutaneum
Candida albicans = test: Tests on substrates against Candida albicans, colour reading on buffered gelose; assay type: cell-based; set-up: key to Specificity: interference with C. albicans: (a): interference with C. albicans (++++); (b): interference with C. krusei (++); (c): interference with C. tropicalis (++)
C. tropicalis [5] = test: Diagnosis from non-isolated colonies on gelose 2/5; assay type: cell-based, Candida tropicalis; also: key: -: none; +: weak; ++: moderate; +++: intense; ++++: very intense
C. parapsilosis [6] = test: Diagnosis from isolated colonies on gelose 2/5; assay type: cell-based, Candida parapsilosis; settings: Table VI; also: key: -: none; +: weak; ++: moderate; +++: intense; ++++: very intense
C. tropicalis [7] = test: Diagnosis from isolated colonies on gelose 2/5; assay type: cell-based, Candida tropicalis; settings: isolated colonies
T. glabrata [8] = test: Diagnosis from isolated colonies on gelose 2/5; assay type: cell-based, Torulopsis glabrata; settings: isolated colonies; also: key: -: none; +: weak; ++: moderate; +++: intense; ++++: very intense
C. guillermondii [9] = test: Diagnosis from non-isolated colonies on gelose 2/5; assay type: cell-based, Candida guillermondii; also: key: -: none; +: weak; ++: moderate; +++: intense; ++++: very intense
C. pseudotropicalis [10] = test: Diagnosis from isolated colonies on gelose 2/5; assay type: cell-based, Candida pseudotropicalis; settings: Table VI; also: key: -: none; +: weak; ++: moderate; +++: intense; ++++: very intense
C. ciferii = test: Diagnosis from non-isolated colonies on gelose 5; assay type: cell-based; settings: Table IX, 1 strain, gelose 5, cycloheximide; also: key: -: none; +: weak; ++: moderate; +++: intense; ++++: very intense
C. guillermondii [11] = test: Diagnosis from isolated colonies on gelose 2/5; assay type: cell-based, Candida guillermondii; settings: Table VI; also: key: -: none; +: weak; ++: moderate; +++: intense; ++++: very intense
C. albicans [12] = test: Diagnosis from isolated colonies on gelose 2/5; assay type: cell-based, Candida albicans; settings: isolated colonies; also: key: -: none; +: weak; ++: moderate; +++: intense; ++++: very intense
C. krusei [13] = test: Diagnosis from isolated colonies on gelose 2/5; assay type: cell-based, Candida krusei
Description: as §1, §2
Several isolated strains of C. albicans, C. tropicalis, C. krusei, C. guillermondii, C. pseudotropicalis, C. parapsilosis, C. zeylanoides, T. glabrata and Trichosporon cutaneum were inoculated and incubated on the media of Examples 1 to 5. […] Part of the results obtained has been collated in Table VI below, where the TTC column relates to results of tests undertaken separately on a standard gelose medium containing TTC.
Several isolated strains of C. albicans, C. tropicalis, C. krusei, C. guillermondii and T. glabrata were inoculated and incubated on the media of Example 2 [containing either the substrate N-Ac-β-D-galactosaminide-PNP of the prior art, or the substrates H-L-PropNA.AcOH (specific for C. albicans), EM-L-Phg-L-ArgpNA.AcOH (specific for T. glabrata) and H-Gly-L-Pro-L-Arg-pNA.2AcOH (specific for C. krusei)]and of Example 5 (containing the substrate H-L-Pro-pNA.AcOH).

Candida guillermondii = test: Tests on substrates against Candida guillermondii; set-up: Reading at 24 h: key to the marks not given beside the values; settings: Table V
C. cerevisiae = test: Diagnosis from non-isolated colonies on gelose 5; assay type: cell-based
Description: as §2, §3

T. glabrata [14] = test: Diagnosis from non-isolated colonies on gelose 2/5; assay type: cell-based, Torulopsis glabrata; also: key: -: none; +: weak; ++: moderate; +++: intense; ++++: very intense
C. parapsilosis [15] = test: Diagnosis from non-isolated colonies on gelose 2/5; assay type: cell-based, Candida parapsilosis; also: key: -: none; +: weak; ++: moderate; +++: intense; ++++: very intense
C. pseudotropicalis [16] = test: Diagnosis from non-isolated colonies on gelose 2/5; assay type: cell-based, Candida pseudotropicalis; also: key: -: none; +: weak; ++: moderate; +++: intense; ++++: very intense
C. zeylanoides [17] = test: Diagnosis from non-isolated colonies on gelose 5; assay type: cell-based, Candida zeylanoides; settings: Table IX, 1 strain, gelose 5, cycloheximide; also: key: -: none; +: weak; ++: moderate; +++: intense; ++++: very intense
Tr. cutaneum [18] = test: Diagnosis from isolated colonies on gelose 2/5; assay type: cell-based, Trichosporon cutaneum; settings: Table VI; also: key: -: none; +: weak; ++: moderate; +++: intense; ++++: very intense
[19] = gelose 5 (maltose, cycloheximide)
[20] = Table VIII, gelose 5 (maltose, cycloheximide)
[21] = Table IX, 2 strains, gelose 5, cycloheximide
[22] = Table VIII, 2 strains, gelose 2
[23] = Table IX, 1 strain, gelose 5, cycloheximide
[24] = Table VI, gelose 5 (maltose, cycloheximide)
[25] = Table VII, gelose 5 with cycloheximide

CC(=O)O.O=C(Nc1ccc([N+](=O)[O-])cc1)[C@@H]1CCCN1 [H-L-Pro-pNA.AcOH]
(a): Specificity: nonspecific for the strains of Candida albicans (Candida albicans; Table I) | Specificity: interference with C. albicans (Candida albicans; Table V)
+++: Reading at t = 24 h (C. albicans [2]; [20]) | Reading at t = 24 h (C. parapsilosis [6]; 5 strains, gelose 2) | Reading at t = 24 h (C. guillermondii [9]; Table VIII, 1 strain, gelose 2) | Reading at t = 24 h (C. guillermondii [11]; 2 strains, gelose 2) | Reading at t = 24 h (C. parapsilosis [15]; [22])
++++: Reading at t = 24 h (C. albicans [2]; Table IX, 89 strains, gelose 5, cycloheximide) | Reading at t = 24 h (C. albicans [2]; Table VIII, 13 strains, gelose 2) | Reading at 24 h (Candida albicans; Table I, medium pH 6.0, YNB, glucose, agar, gentamycin, coloration or fluorescence) | Reading at t = 24 h (C. albicans [12]; Table VI, 10 strains, gelose 2) | Reading at t = 24 h (C. albicans [12]; [24]) | Reading at t = 24 h (C. albicans [12]; Table VII, 6 strains, gelose 2) | Reading at t = 24 h (C. albicans [12]; [25]) | Reading at 24 h (Candida guillermondii)
-: Reading at t = 24 h (C. zeylanoides [1]; [19]) | Reading at t = 24 h (C. krusei [3]) | Reading at t = 24 h (Cr. neoformans; 1 strain, gelose 2) | Reading at t = 24 h (Cr. neoformans; [19]) | Reading at t = 24 h (Tr. cutaneum [4]; [21]) | Reading at t = 24 h (Tr. cutaneum [4]; [20]) | Reading at t = 24 h (C. tropicalis [5]; [23]) | Reading at t = 24 h (C. tropicalis [5]; Table VIII, 1 strain, gelose 2) | Reading at t = 24 h (C. tropicalis [5]; [20]) | Reading at t = 24 h (C. parapsilosis [6]; [19]) | Reading at t = 24 h (C. tropicalis [7]; Table VI, 4 strains, gelose 2) | Reading at t = 24 h (C. tropicalis [7]; [24]) | Reading at t = 24 h (C. tropicalis [7]; Table VII, 9 strains, gelose 2) | Reading at t = 24 h (C. tropicalis [7]; [25]) | Reading at t = 24 h (T. glabrata [8]; Table VI, 4 strains, gelose 2) | Reading at t = 24 h (T. glabrata [8]; [24]) | Reading at t = 24 h (T. glabrata [8]; Table VII, 9 strains, gelose 2) | Reading at t = 24 h (T. glabrata [8]; [25]) | Reading at t = 24 h (C. guillermondii [9]; [23]) | Reading at t = 24 h (C. guillermondii [9]; [20]) | Reading at t = 24 h (C. pseudotropicalis [10]; 2 strains, gelose 2) | Reading at t = 24 h (C. pseudotropicalis [10]; [19]) | Reading at t = 24 h (C. ciferii) | Reading at t = 24 h (C. guillermondii [11]; [19]) | Reading at t = 24 h (C. krusei [13]) | Reading at t = 24 h (C. cerevisiae) | Reading at t = 24 h (T. glabrata [14]; Table IX, 8 strains, gelose 5, cycloheximide) | Reading at t = 24 h (T. glabrata [14]; Table VIII, 8 strains, gelose 2) | Reading at t = 24 h (T. glabrata [14]; [20]) | Reading at t = 24 h (C. parapsilosis [15]; [23]) | Reading at t = 24 h (C. parapsilosis [15]; [20]) | Reading at t = 24 h (C. pseudotropicalis [16]; [21]) | Reading at t = 24 h (C. pseudotropicalis [16]; Table VIII, 1 strain, gelose 2) | Reading at t = 24 h (C. pseudotropicalis [16]; [20]) | Reading at t = 24 h (C. zeylanoides [17]) | Reading at t = 24 h (Tr. cutaneum [18]; [19])
+: Reading at t = 24 h (Tr. cutaneum [18]; 1 strain, gelose 2)
++: Reading at t = 24 h (C. zeylanoides [1]; 1 strain, gelose 2) | Reading at t = 24 h (Tr. cutaneum [4]; [22])

From patent US5449612A, “Process for identifying candida by means of chromogenic substances” (Serbio, priority 1990, dated 1995)
